The record followed here is US20260199323A1, “LIGAND COMPOUNDS FOR E3 UBIQUITIN LIGASE, PROTEIN DEGRADERS DEVELOPED ON BASIS OF LIGAND COMPOUNDS, AND USES THEREOF” (GLUETACS THERAPEUTICS (SHANGHAI) CO., LTD., priority 2021, published 2026).

Experiment [1] deals with CCRF-CEM. Description: CCK-8 tumor cell proliferation, CCRF-CEM. The class given is cell-based, Human. On the set-up: IC50 for inhibiting the proliferation of tumor cells, CCRF-CEM: scale not given here. To be noted: for IC50 for inhibiting the proliferation of tumor cells, CCRF-CEM: Table 16, designed based on BET inhibitors, 96 h; for IC50: Homo sapiens, Table 19, IRAK4 inhibitor based, CCRF-CEM, read-out: IC50 inhibiting proliferation of tumor cells, CCRF-CEM. The gist of the method: (§1)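 STR-authenticated, mycoplasma-negative cells were cultured at 37 °C with 5% CO2. One day after plating, they were treated with a 5-fold serial dilution of compound (10 points, highest 10 μM). CCK-8 was used to assess viability, giving IC50 values.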

For experiment [2], the system named is Mino. Description: CCK-8 tumor cell proliferation, Mino. To be noted: for IC50 for inhibiting the proliferation of tumor cells, Mino: Table 16, designed based on BET inhibitors, 72 h; for IC50: Mino, read-out: IC50 inhibiting proliferation of tumor cells, Mino. The experiment is classed as cell-based, Human. The gist of the method:
as §1

The subject of experiment [3] is PC-3. In words: CCK-8 tumor cell proliferation, PC-3. The experiment is classed as cell-based, Human. The settings on record: 96 h. How it is done: (§2) The tumor cells used herein were cultured in a cell culture medium listed in table 4 at 37° C. in an incubator with 5% CO2. Prior to experimentation, all cells used were correctly identified by STR profiling, and tested negative for mycoplasma through routine screenings.
(§3) IC50 values of the compounds of the present disclosure (including the compounds in Tables 1 and 3, and compounds of examples) were measured using the Meilun Cell Counting Kit-8 kit from Dalian Meilun Biotech Co., Ltd. Assay details are as follows: tumor cells were seeded in a 96-well plate at a density listed in Table 5. After 24 h, 100 μL of the inoculated cells were treated with 0.5 μL of the compounds of the present disclosure (including the compounds in Tables 1 and 3, and compounds of examples) at 10 different successively decreasing concentrations (starting at the highest concentration of 10 μM; 5-fold serial dilutions). After the cells were treated with the compounds of the present disclosure for a period of time, the cell viability detection reagent was added to the culture medium for cell viability assessment according to the instructions provided with the CCK-8 kit. […] The growth inhibition of the compounds of the present disclosure on cells was plotted by Prism Graphpad software, and the IC50 values of the compounds of the present disclosure were calculated therefrom.

The subject of experiment [4] is PC-9. Description: CCK-8 tumor cell proliferation, PC-9. The experiment is classed as cell-based, Human. The settings on record: Table 11, designed based on EGFR inhibitors; 96 h.
The subject of experiment [5] is NCI-H358. Description: CCK-8 tumor cell proliferation, NCI-H358. Set-up: species or system Human. To be noted: Table 11, designed based on EGFR inhibitors; 96 h. How it is done: The tumor cells used herein were cultured in a cell culture medium listed in table 4 at 37° C. in an incubator with 5% CO2.
as §3, with “After” for “IC50 values of the compounds of the present disclosure (including the compounds in Tables 1 and 3, and compounds of examples) were measured using the Meilun Cell Counting Kit-8 kit from Dalian Meilun Biotech Co., Ltd. Assay details are as follows: tumor cells were seeded in a 96-well plate at a density listed in Table 5. After”

Experiment [6] relates to SU-DHL-4. In words: CCK-8 tumor cell proliferation, SU-DHL-4. The experiment is classed as cell-based, Human. The settings on record: read-out: IC50 inhibiting proliferation of tumor cells, SU-DHL-4. How it is done:
as §2, §3

Experiment [7] deals with Kasumi-1. Description: CCK-8 tumor cell proliferation, Kasumi-1. To be noted: for IC50: Homo sapiens, Table 19, IRAK4 inhibitor based, Kasumi-1, read-out: IC50 inhibiting proliferation of tumor cells, Kasumi-1. The class given is cell-based, Human. The gist of the method:
as §1

In experiment [8] the test system is MV-4-11. Description: CCK-8 tumor cell proliferation, MV-4-11. The class given is cell-based, Human. The settings on record: Homo sapiens, MV4-11; Table 19, IRAK4 inhibitor based; MV-4-11; read-out: IC50 inhibiting proliferation of tumor cells, MV-4-11. The gist of the method:
as §1

The subject of experiment [9] is MM.1R. In words: CCK-8 tumor cell proliferation, MM.1R. The class given is cell-based. To be noted: Table 19, IRAK4 inhibitor based, read-out: IC50 inhibiting proliferation of tumor cells, MM.1R. The gist of the method:
as §1

Experiment [10] relates to SW620. In words: CCK-8 tumor cell proliferation, SW620. The experiment is classed as cell-based, Human. To be noted: SW620, read-out: IC50 inhibiting proliferation of tumor cells, SW620. The gist of the method: as §1
Experiment [11] has as its system NCI-H1666. In words: CCK-8 tumor cell proliferation, NCI-H1666. The class given is cell-based, Human. The settings on record: read-out: IC50 inhibiting proliferation of tumor cells, NCI-H1666. How it is done: as §2, §3
Experiment [12] deals with Jurkat. In words: CCK-8 tumor cell proliferation, Jurkat. The class given is cell-based, Human. The settings on record: Homo sapiens, Table 19, IRAK4 inhibitor based, read-out: IC50 inhibiting proliferation of tumor cells, Jurkat. The gist of the method:
as §1

Experiment [13] deals with CAL-62. Description: CCK-8 tumor cell proliferation, CAL-62. The experiment is classed as cell-based, Human. To be noted: Homo sapiens; Table 19, IRAK4 inhibitor based; CAL-62; read-out: IC50 inhibiting proliferation of tumor cells, CAL-62. The gist of the method:
as §1

Setting [14] is: Table 16, designed based on BET inhibitors.
Where [15] appears, read: Homo sapiens, Table 19, IRAK4 inhibitor based.
The mark [16] stands for this setting: Homo sapiens, SW-620, Table 19, IRAK4 inhibitor based.
Where [17] appears, read: Homo sapiens, Table 19, given as number.

Read-outs that look alike come from different tables or passages of the source.

With `COc1cc(OC)c2c(=O)[nH]c(-c3ccc(N4CCC(N5CCN(Cc6ccc7c(c6)CN(C6CCC(=O)NC6=O)C7=O)CC5)CC4)cc3)nc2c1` (centres unmarked) [GT-03708, 3-(5-((4-(1-(4-(5,7-dimethoxy-4-oxo-3,4-dihydroquinazolin-2-yl)phenyl)piperidin-4-yl)piperazin-1-yl)methyl)-1-oxoisoindolin-2-yl)piperidine-2,6-dione], the “IC50 for inhibiting the proliferation of tumor cells, CCRF-CEM” value in experiment [1] is on record as “A+”. The “IC50 for inhibiting the proliferation of tumor cells, Mino” value in [2] was “A+”. Besides, the “IC50 for inhibiting the proliferation of tumor cells, PC-3” value in experiment [3] (setting [14]) is listed as “A+”.
In the case of `COc1cc2ncnc(Nc3ccc(Cl)c(Cl)c3F)c2cc1OC1CCN(Cc2ccc3c(c2)CN(C2CCC(=O)NC2=O)C3=O)CC1` (centres unmarked) [GT-03412, 3-(5-((4-((4-((3,4-dichloro-2-fluorophenyl)amino)-7-methoxyquinazolin-6-yl)oxy)piperidin-1-yl)methyl)-1-oxoisoindolin-2-yl)piperidine-2,6-dione], the “IC50 for inhibiting the proliferation of tumor cells, PC-9” value in experiment [4] is “A+”. In experiment [5], the “IC50 for inhibiting the proliferation of tumor cells, NCI-H358” value is listed as “A+”.
Regarding `Cc1sc2c(c1C)C(c1ccc(Cl)cc1)=N[C@@H](CC(=O)OC(C)(C)C)c1nnc(C)n1-2` [JQ-1, reference compound], in experiment [3] (Table 16, designed based on BET inhibitors, read-out: IC50 for inhibiting the proliferation of tumor cells, PC-3), the IC50 is over 10000 nM.
For `O=C1CCC(N2Cc3cc(CN4CCC(n5cc(NC(=O)c6cnn7ccc(N8CCOCC8)nc67)c(C(F)F)n5)CC4)c(F)cc3C2=O)C(=O)N1` (centres unmarked) [GT-03811, N-(3-(difluoromethyl)-1-(1-((2-(2,6-dioxopiperidin-3-yl)-6-fluoro-1-oxoisoindolin-5-yl)methyl)piperidin-4-yl)-1H-pyrazol-4-yl)-5-morpholinopyrazolo[1,5-a]pyrimidine-3-carboxamide], the IC50 in [6] (setting [15]) was 100 to 500 nM; in experiment [1] it was under 50 nM; in [7], under 50 nM; in experiment [2] (setting [15]) it was under 50 nM; in [8], under 50 nM; in experiment [9], under 50 nM. Besides, the IC50 in [10] (setting [16]) is under 50 nM; in experiment [11] (setting [15]), 50 to 100 nM; in [12], under 50 nM; in experiment [13] it was under 50 nM.
`O=C1CCC(N2Cc3cc(CN4CCC(n5cc(NC(=O)c6cnn7ccc(N8CCOCC8)nc67)c(C(F)F)n5)CC4)ccc3C2=O)C(=O)N1` (centres unmarked) [GT-03809, N-(3-(difluoromethyl)-1-(1-((2-(2,6-dioxopiperidin-3-yl)-1-oxoisoindolin-5-yl)methyl)piperidin-4-yl)-1H-pyrazol-4-yl)-5-morpholinopyrazolo[1,5-a]pyrimidine-3-carboxamide]: the IC50 in experiment [6] (setting [15]) is 500 to 1000 nM; in experiment [1] it was under 50 nM; in experiment [7], under 50 nM; in experiment [2] (setting [15]) it was under 50 nM; in [8] it was under 50 nM; in experiment [9], under 50 nM. Further, the IC50 in [10] (setting [16]) is under 50 nM; in [11] (setting [15]), 500 to 1000 nM; in [12] it was under 50 nM; in [13], under 50 nM.
In the case of `CC[C@@H]1[C@H](F)C(=O)N[C@@H]1COc1nccc2cc(C(N)=O)c(OC)cc12` [PF06650833, reference compound], the IC50 in [6] (Table 19, given as number) is over 10000 nM; in experiment [2] (Table 19, IRAK4 inhibitor based), 5000 to 10000 nM; in experiment [10] (Table 19, given as number), over 10000 nM; in experiment [11] (Table 19, given as number), over 10000 nM.
Turning to `O=C1CCC(N2Cc3c(ccc(CN4CCC(n5cc(NC(=O)c6cnn7ccc(N8CCOCC8)nc67)c(C(F)F)n5)CC4)c3F)C2=O)C(=O)N1` (centres unmarked) [GT-03810, N-(3-(difluoromethyl)-1-(1-((2-(2,6-dioxopiperidin-3-yl)-4-fluoro-1-oxoisoindolin-5-yl)methyl)piperidin-4-yl)-1H-pyrazol-4-yl)-5-morpholinopyrazolo[1,5-a]pyrimidine-3-carboxamide], the IC50 in experiment [6] (setting [15]) is 100 to 500 nM; in experiment [1], under 50 nM; in [7] it was under 50 nM; in experiment [2] (setting [15]) it was under 50 nM; in experiment [8], under 50 nM; in experiment [9] it was under 50 nM. Further, the IC50 is under 50 nM in experiment [10] (setting [16]), 100 to 500 nM in [11] (setting [15]), under 50 nM in [12] and under 50 nM in [13].
Take `Cc1sc2c(c1C)C(c1ccc(Cl)cc1)=N[C@@H](CC(=O)NCCN1CCN(Cc3ccc4c(c3)CN(C3CCC(=O)NC3=O)C4=O)CC1)c1nnc(C)n1-2` (stereo partly drawn) [GT-03296, 2-((S)-4-(4-chlorophenyl)-2,3,9-trimethyl-6H-thieno[3,2-f][1,2,4]triazolo[4,3-a][1,4]diazepin-6-yl)-N-(2-(4-((2-(2,6-dioxopiperidin-3-yl)-1-oxoisoindolin-5-yl)methyl)piperazin-1-yl)ethyl)acetamide]: in experiment [1], the “IC50 for inhibiting the proliferation of tumor cells, CCRF-CEM” value was “A+”. Further, the “IC50 for inhibiting the proliferation of tumor cells, Kasumi-1” value in experiment [7] (Table 16, designed based on BET inhibitors, 72 h) is reported as “A+”. Besides, the “IC50 for inhibiting the proliferation of tumor cells, Mino” value in experiment [2] was “A+”. For the same compound, the “IC50 for inhibiting the proliferation of tumor cells, PC-3” value in experiment [3] (setting [14]) is recorded as “A+”.
With `COc1cc2ncnc(Nc3ccc(Cl)c(Cl)c3F)c2cc1OCc1ccc2c(c1)CN(C1CCC(=O)NC1=O)C2=O` (centres unmarked) [GT-03354, 3-(5-(((4-((3,4-dichloro-2-fluorophenyl)amino)-7-methoxyquinazolin-6-yl)oxy)methyl)-1-oxoisoindolin-2-yl)piperidine-2,6-dione], in experiment [5], the “IC50 for inhibiting the proliferation of tumor cells, NCI-H358” value is “A+”.
`Cc1cc(-c2nc(C(=O)Nc3cc4oc(N5CCOCC5)nc4nc3N3CC[C@@H](O)C3)co2)ccn1` [emavusertib, reference compound]: the IC50 was over 10000 nM in experiment [6] (setting [17]); over 10000 nM in experiment [2] (setting [17]); over 10000 nM in [10] (Homo sapiens, SW-620, Table 19, given as number); over 10000 nM in [11] (setting [17]).
Take `N#Cc1ccc(O[C@H]2CC[C@H](NC(=O)c3ccc(N4CCC(N5CCN(Cc6ccc7c(c6)CN(C6CCC(=O)NC6=O)C7=O)CC5)CC4)nn3)CC2)cc1Cl` (some centres unmarked) [GT-02989, N-((1r,4r)-4-(3-chloro-4-cyanophenoxy)cyclohexyl)-6-(4-(4-((2-(2,6-dioxopiperidin-3-yl)-1-oxoisoindolin-5-yl)methyl)piperazin-1-yl)piperidin-1-yl)pyridazine-3-carboxamide]: the “IC50 for inhibiting the proliferation of tumor cells, PC-3” value in experiment [3] (Table 10, designed based on AR inhibitors) was “A+”.
